What all share (assay type): binding
Assay [1] has as its target T1, Recombinant human integrin ανβ1 (Homo sapiens, UniProt P05556+P06756).
T1 construct: purchased R&D Systems 6579-AV
The assay is described as follows: Solid Phase Receptor Assay (SPRA) for ανβ1 function. Particulars: plate-bound human fibronectin; read-out: αvβ1 SPRA IC50. On the procedure: B. Solid Phase Receptor Assay (SPRA) for ανβ1 Function
Wells were washed 3 times with 150 μL TBS+ and then 150 μL of blocking buffer (TBS+ with 1% bovine serum albumin, Sigma A7906) was added. The plate was incubated for 1 hr at 37° C. and then washed 3× with TBS+ buffer. […] Compounds were diluted to 20 μM and 1 μL was added to each well of the plate according to a standard template with each sample repeated in triplicate. After incubation for two hours at room temperature, the plate was washed 3 with 150 μL of TBS+ buffer. To each well, 50 μL of biotinylated anti-αν antibody (R&D Systems, BAF1219) at 1 μg/mL in TBS+/0.1% BSA were added and the plate covered and incubated for 1 hr at room temperature. After washing the plate 3× with 150 μL of TBS+ buffer, 50 μL of streptavidin-conjugated horseradish peroxidase (R&D Systems, DY998) diluted in TBS+ blocking buffer were added to the wells and the plate incubated for 20 min at room temperature. The plate was washed 3× with TBS+ buffer followed by 50 μL of TMB substrate (Sigma, T4444) added to each well in the dark and the plate incubated for 25 min at room temperature. 25 μL of 1.0 M phosphoric acid was added as a stop solution and the plates were read at 450 nm using a Spectramax plate reader.

Assay [2] concerns the target T2, Recombinant human integrin ανβ6 (Homo sapiens, UniProt P06756+P18564).
T2 construct: purchased R&D Systems 3817-AV
The assay is described as follows: Solid Phase Receptor Assay (SPRA) for ανβ6 function. Particulars: plate-bound human LAP; read-out: αvβ6 SPRA IC50. On the procedure:
E. Solid Phase Receptor Assay (SPRA) for ανβ6 Function
Wells were washed 3 times with 150 μL TBS+, and then 150 μL of blocking buffer (TBS+ with 1% bovine serum albumin, Sigma A7906) was added. The plate was incubated for 1 hr at 37° C., and then washed 3× with TBS+ buffer. […] Compounds were diluted to 20 μM and then 1 μL was added to each well of the plate according to a standard template with each sample repeated in triplicate. After incubation for two hours at room temperature, the plate was washed 3× with 150 μL of TBS+ buffer. To each well, 50 μL of biotinylated anti-αν antibody (R&D Systems, BAF1219) at 0.5 μg/mL in TBS+/0.1% BSA were added and the plate was covered and incubated for 1 hr at room temperature. After washing the plate 3× with 150 μL of TBS+ buffer, 50 μL of streptavidin-conjugated horseradish peroxidase (R&D Systems, DY998) diluted in TBS+ blocking buffer were added to the wells and the plate incubated for 20 min at room temperature. The plate was washed 3× with TBS+ buffer followed by 50 μL of TMB substrate (Sigma T4444) added to each well in the dark and the plate incubated for 10 min at room temperature. 25 μL of 1.0 M phosphoric acid was added as a stop solution and the plates were read at 450 nm using a Spectramax plate reader.

Assay [3] has as its target T3, Recombinant human integrin ανβ3 (Homo sapiens, UniProt P05106+P06756).
T3 construct: purchased R&D Systems 3050-AV
Put plainly: Solid Phase Receptor Assay (SPRA) for ανβ3 function. Particulars: plate-bound human vitronectin; read-out: αvβ3 SPRA IC50. Here is the method: C. Solid Phase Receptor Assay (SPRA) for ανβ3 Function
Wells were washed 3 times with 150 μL TBS+ and then 150 μL of blocking buffer (TBS+ with 1% bovine serum albumin, Sigma A7906) was added. The plate was incubated for 1 hr at 37° C. and then washed 3× with TBS+ buffer. […] Compounds were diluted to 20 μM and then 1 μL was added to each well of the plate according to a standard template with each sample repeated in triplicate. After incubation for two hours at room temperature, the plate was washed 3× with 150 μL of TBS+ buffer. To each well, 50 μL of biotinylated anti-αν antibody (R&D Systems, BAF1219) at 0.5 μg/mL in TBS+/0.1% BSA were added and the plate covered and incubated for 1 hr at room temperature. After washing the plate 3× with 150 μL of TBS+ buffer, 50 μL of streptavidin-conjugated horseradish peroxidase (R&D Systems, DY998) diluted in TBS+ blocking buffer were added to the wells and the plate incubated for 20 min at room temperature. The plate was washed 3× with TBS+ buffer followed by 50 μL of TMB substrate (Sigma, T4444) added to each well in the dark and the plate was incubated for 25 min at room temperature. 25 μL of 1.0 M phosphoric acid was added as a stop solution and the plates were read at 450 nm using a Spectramax plate reader.

Assay [4] deals with T4, Recombinant human integrin α5β1 (Homo sapiens, UniProt P05556+P08648).
T4 construct: purchased R&D Systems 3230-A5
T4 sequence (P08648 42-995 limits assumed): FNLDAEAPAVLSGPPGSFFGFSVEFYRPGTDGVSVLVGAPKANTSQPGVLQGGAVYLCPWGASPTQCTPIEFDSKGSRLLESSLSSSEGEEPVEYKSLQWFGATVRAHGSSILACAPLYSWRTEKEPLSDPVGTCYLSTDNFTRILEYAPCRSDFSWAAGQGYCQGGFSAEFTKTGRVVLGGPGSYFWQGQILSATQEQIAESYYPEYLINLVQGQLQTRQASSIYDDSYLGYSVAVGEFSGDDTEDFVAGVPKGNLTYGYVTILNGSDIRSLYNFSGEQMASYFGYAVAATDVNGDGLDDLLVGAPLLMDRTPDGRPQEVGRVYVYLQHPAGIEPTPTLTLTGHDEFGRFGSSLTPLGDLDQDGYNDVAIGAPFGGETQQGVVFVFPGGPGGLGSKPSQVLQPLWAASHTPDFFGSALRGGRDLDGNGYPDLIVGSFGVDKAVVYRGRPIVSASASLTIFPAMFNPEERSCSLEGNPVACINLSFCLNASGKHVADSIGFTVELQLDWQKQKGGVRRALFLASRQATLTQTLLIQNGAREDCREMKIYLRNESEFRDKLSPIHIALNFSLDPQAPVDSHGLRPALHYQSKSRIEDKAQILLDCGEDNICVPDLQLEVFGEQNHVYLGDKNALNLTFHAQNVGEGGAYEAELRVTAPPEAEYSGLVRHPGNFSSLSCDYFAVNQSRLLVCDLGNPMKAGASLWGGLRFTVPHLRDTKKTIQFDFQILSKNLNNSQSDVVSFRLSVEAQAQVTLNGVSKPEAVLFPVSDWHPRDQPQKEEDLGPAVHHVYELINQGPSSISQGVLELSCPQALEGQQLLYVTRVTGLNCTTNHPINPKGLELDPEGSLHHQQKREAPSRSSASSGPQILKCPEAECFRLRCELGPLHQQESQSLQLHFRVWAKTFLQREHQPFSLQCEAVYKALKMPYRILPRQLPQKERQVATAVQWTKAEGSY
T4 sequence (P05556 21-728 limits assumed): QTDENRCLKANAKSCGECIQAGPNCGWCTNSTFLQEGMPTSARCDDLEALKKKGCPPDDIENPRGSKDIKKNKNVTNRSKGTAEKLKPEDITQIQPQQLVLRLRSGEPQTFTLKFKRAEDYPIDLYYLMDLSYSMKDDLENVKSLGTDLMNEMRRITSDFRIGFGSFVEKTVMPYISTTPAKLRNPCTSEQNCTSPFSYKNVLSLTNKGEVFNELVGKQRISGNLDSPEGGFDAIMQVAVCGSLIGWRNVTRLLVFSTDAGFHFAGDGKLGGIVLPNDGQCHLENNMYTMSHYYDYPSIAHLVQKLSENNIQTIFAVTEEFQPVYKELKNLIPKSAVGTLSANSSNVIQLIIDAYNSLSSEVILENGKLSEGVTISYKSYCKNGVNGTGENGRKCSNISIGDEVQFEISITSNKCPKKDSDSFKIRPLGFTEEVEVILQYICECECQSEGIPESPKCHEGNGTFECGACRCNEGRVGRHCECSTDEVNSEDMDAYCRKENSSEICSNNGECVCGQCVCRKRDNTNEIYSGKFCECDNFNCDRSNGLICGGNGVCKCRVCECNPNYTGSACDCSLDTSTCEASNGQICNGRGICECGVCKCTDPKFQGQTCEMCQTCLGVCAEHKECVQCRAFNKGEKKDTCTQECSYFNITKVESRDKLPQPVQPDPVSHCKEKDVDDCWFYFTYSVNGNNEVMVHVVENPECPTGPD
Put plainly: Solid Phase Receptor Assay (SPRA) for α5β1 function. Particulars: plate-bound human fibronectin. On the procedure: A. Solid Phase Receptor Assay (SPRA) for α5β1 Function
Wells were washed 3 times with 150 μL TBS+ and then 150 μL of blocking buffer (TBS+ with 1% bovine serum albumin, Sigma A7906) was added. The plate was incubated for 1 hr at 37° C. and then washed 3× with TBS+ buffer. […] Compounds were diluted to 20 μM and then 1 μL was added to each well of the plate according to a standard template with each sample repeated in triplicate. After incubation for two hours at room temperature, the plate was washed 3× with 150 μL of TBS+ buffer. To each well, 50 μL of biotinylated anti-α5 antibody (R&D Systems, BAF1864) at 0.5 μg/mL in TBS+/0.1% BSA were added and the plate covered and incubated for 1 hr at room temperature. After washing the plate 3× with 150 μL of TBS+ buffer, 50 μL of streptavidin-conjugated horseradish peroxidase (R&D Systems, DY998) diluted in TBS+ blocking buffer were added to the wells and the plate incubated for 20 min at room temperature. The plate was washed 3× with TBS+ buffer followed by 50 μL of room temperature TMB substrate (Sigma, T4444) added to each well in the dark and the plate incubated for 25 min at room temperature. 25 μL of 1.0 M phosphoric acid was added as a stop solution and the plates were read at 450 nm using a Spectramax plate reader.

Structures can show the parent of a compound that is named as a salt.

The values below come from patent publication US11306084B2, “Integrin antagonists” (Saint Louis University, priority 2016, dated 2022).

T1 sequence (P06756 31-992 limits assumed): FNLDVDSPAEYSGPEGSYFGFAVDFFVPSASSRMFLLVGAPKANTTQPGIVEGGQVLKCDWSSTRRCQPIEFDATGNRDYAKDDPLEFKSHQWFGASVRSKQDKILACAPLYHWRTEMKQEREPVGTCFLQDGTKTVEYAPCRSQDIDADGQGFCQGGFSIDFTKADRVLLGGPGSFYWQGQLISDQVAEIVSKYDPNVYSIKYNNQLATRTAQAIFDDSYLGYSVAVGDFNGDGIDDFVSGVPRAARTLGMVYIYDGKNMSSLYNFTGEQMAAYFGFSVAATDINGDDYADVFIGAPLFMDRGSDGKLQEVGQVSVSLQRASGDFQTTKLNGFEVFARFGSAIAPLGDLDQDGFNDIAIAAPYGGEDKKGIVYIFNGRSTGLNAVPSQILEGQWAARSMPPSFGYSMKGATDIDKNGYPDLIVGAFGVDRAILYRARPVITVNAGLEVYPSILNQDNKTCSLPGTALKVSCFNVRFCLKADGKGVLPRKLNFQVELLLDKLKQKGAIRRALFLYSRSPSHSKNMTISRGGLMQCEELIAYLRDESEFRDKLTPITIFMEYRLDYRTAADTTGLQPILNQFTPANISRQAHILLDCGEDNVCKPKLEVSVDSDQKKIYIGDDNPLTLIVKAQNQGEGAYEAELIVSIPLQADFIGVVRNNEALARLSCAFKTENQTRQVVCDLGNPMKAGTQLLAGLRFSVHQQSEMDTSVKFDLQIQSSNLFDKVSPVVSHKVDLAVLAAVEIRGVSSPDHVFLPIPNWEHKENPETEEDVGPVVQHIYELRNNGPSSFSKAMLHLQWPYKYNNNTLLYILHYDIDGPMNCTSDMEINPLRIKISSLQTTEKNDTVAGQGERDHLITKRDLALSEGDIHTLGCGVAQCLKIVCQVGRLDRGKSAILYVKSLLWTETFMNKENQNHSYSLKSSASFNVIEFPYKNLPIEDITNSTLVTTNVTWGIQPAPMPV
T1 sequence (P05556 21-728 limits assumed): as the sequence (P05556 21-728 limits assumed) above
T3 sequence (P06756 31-992 limits assumed): as the sequence (P06756 31-992 limits assumed) above
T3 sequence (P05106 27-718 limits assumed): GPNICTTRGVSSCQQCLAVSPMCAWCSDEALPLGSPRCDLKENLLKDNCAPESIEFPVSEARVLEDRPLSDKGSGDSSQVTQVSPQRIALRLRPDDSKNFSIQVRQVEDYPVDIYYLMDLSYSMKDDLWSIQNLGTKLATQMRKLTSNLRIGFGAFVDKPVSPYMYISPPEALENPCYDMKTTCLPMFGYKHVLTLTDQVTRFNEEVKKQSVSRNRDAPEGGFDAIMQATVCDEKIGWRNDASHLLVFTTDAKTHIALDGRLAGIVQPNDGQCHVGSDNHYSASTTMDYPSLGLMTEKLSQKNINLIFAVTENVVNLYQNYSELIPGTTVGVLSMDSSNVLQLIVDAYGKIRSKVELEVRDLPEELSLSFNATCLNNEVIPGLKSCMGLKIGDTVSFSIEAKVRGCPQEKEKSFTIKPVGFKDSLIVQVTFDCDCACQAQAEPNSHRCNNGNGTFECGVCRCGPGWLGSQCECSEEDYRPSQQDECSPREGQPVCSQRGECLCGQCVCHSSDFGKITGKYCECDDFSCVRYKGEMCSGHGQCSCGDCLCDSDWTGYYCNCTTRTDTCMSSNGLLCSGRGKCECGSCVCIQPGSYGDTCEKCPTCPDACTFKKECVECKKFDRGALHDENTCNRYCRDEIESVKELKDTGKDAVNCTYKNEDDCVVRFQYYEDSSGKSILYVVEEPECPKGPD
T2 sequence (P06756 31-992 limits assumed): as the sequence (P06756 31-992 limits assumed) above
T2 sequence (P18564 22-707 limits assumed): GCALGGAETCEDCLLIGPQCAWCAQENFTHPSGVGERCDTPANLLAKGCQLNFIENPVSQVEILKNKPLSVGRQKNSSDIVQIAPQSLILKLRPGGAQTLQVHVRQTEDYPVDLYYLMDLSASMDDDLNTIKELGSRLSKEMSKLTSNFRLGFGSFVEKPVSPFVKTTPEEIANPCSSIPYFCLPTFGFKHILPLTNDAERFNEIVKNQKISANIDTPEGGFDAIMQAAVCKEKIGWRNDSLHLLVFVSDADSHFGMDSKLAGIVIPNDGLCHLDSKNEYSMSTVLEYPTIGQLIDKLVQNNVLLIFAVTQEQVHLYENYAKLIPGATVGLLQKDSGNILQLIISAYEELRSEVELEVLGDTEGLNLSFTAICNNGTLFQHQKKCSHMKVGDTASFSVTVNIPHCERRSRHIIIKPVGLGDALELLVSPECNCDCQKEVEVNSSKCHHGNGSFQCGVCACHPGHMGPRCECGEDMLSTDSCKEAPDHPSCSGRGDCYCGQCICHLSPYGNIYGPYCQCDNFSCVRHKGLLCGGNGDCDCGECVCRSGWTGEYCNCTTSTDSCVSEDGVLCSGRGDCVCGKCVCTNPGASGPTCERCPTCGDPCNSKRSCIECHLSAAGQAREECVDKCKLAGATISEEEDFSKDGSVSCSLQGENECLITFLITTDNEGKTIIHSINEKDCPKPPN

For orientation: IC50 means the concentration that gives 50% inhibition. For the compound `Cn1nc(CC(CC(=O)O)c2cc(Br)cc(C(F)(F)F)c2)cc1OCCc1ccc2c(n1)NCCC2` (stereo not shown) [Example 10, 3-(3-bromo-5-(trifluoromethyl)phenyl)-4-(1-methyl-5-(2-(5,6,7,8-tetrahydro-1,8-naphthyridin-2-yl)ethoxy)-1H-pyrazol-3-yl)butanoic Acid], the IC50 in assay [1] is 17 nM; in assay [2] it was 25 nM; in assay [3], 3.6 nM; in assay [4], 120 nM.

As for `Cn1nc(CC(CC(=O)O)c2cc(Br)cc(OC(F)(F)F)c2)cc1OCCc1ccc2c(n1)NCCC2` (stereo not shown) [Example 11, 3-(3-bromo-5-(trifluoromethoxy)phenyl)-4-(1-methyl-5-(2-(5,6,7,8-tetrahydro-1,8-naphthyridin-2-yl)ethoxy)-1H-pyrazol-3-yl)butanoic Acid], the 50% inhibitory concentration (IC50) is 11 nM in assay [1], 60 nM in assay [2], 6 nM in assay [3] and 150 nM in assay [4].

Turning to `COc1ccc(C(F)(F)F)cc1C(CC(=O)O)Cc1cc(OCCc2ccc3c(n2)NCCC3)n(C)n1` (stereo not shown) [Example 13, 3-(2-methoxy-5-(trifluoromethyl)phenyl)-4-(1-methyl-5-(2-(5,6,7,8-tetrahydro-1,8-naphthyridin-2-yl)ethoxy)-1H-pyrazol-3-yl)butanoic Acid Trifluoroacetate], the IC50 in assay [1] turned out to be 5.8 nM; in assay [2], 51 nM; in assay [3], 11 nM; in assay [4] it was 59 nM.

Take `COc1ccc(Br)cc1C(CC(=O)O)Cc1cc(OCCc2ccc3c(n2)NCCC3)n(C)n1` (stereo not shown) [Example 14, 3-(5-bromo-2-methoxyphenyl)-4-(1-methyl-5-(2-(5,6,7,8-tetrahydro-1,8-naphthyridin-2-yl)ethoxy)-1H-pyrazol-3-yl)butanoic acid trifluoroacetate]: the IC50 in assay [1] amounted to 5 nM; in assay [2], 22 nM; in assay [3] it was 6.7 nM; in assay [4] it was 44 nM.

As to `COc1ccc([C@H](CC(=O)O)Cc2cc(OCCc3ccc4c(n3)NCCC4)n(C)n2)cc1F` [Example 15, (3S)-3-(3-fluoro-4-methoxyphenyl)-4-(1-methyl-5-(2-(5,6,7,8-tetrahydro-1,8-naphthyridin-2-yl)ethoxy)-1H-pyrazol-3-yl)butanoic Acid], the IC50 is 3.8 nM in assay [1], 49 nM in assay [2], 2.6 nM in assay [3] and 85 nM in assay [4].

Turning to `Cn1nc(CC(CC(=O)O)c2cc(Br)cc(C(C)(C)C)c2)cc1OCCc1ccc2c(n1)NCCC2` (stereo not shown) [Example 16, 3-(3-bromo-5-tert-butyl-phenyl)-4-(1-methyl-5-(2-(5,6,7,8-tetrahydro-1,8-naphthyridin-2-yl)ethoxy)-1H-pyrazol-3-yl)butanoic Acid], the IC50 in assay [1] was determined as 3 nM; in assay [2], 80 nM; in assay [3] it was 7.7 nM; in assay [4], 30 nM.

Consider `Cn1nc(CC(CC(=O)O)c2cc(C#N)cc(C(C)(C)C)c2)cc1OCCc1ccc2c(n1)NCCC2` (stereo not shown) [Example 17], for which the IC50 came out at 4.4 nM in assay [1], 28 nM in assay [2], 7.4 nM in assay [3] and 11 nM in assay [4].

For the compound `Cn1nc(CC(CC(=O)O)c2cc(C(C)(C)C)cc(C(C)(C)C)c2)cc1OCCc1ccc2c(n1)NCCC2` (stereo not shown) [Example 18, 3-(3,5-di-tert-butylphenyl)-4-[1-methyl-5-[2-(5,6,7,8-tetrahydro-1,8-naphthyridin-2-yl)ethoxyl]pyrazol-3-yl]butanoic Acid], the IC50 in assay [1] was found to be 1.4 nM; in assay [2], 620 nM; in assay [3] it was 84 nM; in assay [4], 6.4 nM.

In the case of `Cn1nc(CC(CC(=O)O)c2cc(Br)cc(C3(C(F)F)CC3)c2)cc1OCCc1ccc2c(n1)NCCC2` (stereo not shown) [Example 19, 3-(3-bromo-5-(1-(difluoromethyl)cyclopropyl)phenyl)-4-(1-methyl-5-(2-(5,6,7,8-tetrahydro-1,8-naphthyridin-2-yl)ethoxy)-1H-pyrazol-3-yl)butanoic Acid], the IC50 was determined as 6.3 nM in assay [1], 45 nM in assay [2], 6.4 nM in assay [3] and 15 nM in assay [4].

For the compound `Cn1nc(CC(CC(=O)O)c2cc(C#N)cc(C3(C(F)F)CC3)c2)cc1OCCc1ccc2c(n1)NCCC2` (stereo not shown) [Example 20, 3-(3-cyano-5-(1-(difluoromethyl)cyclopropyl)phenyl)-4-(1-methyl-5-(2-(5,6,7,8-tetrahydro-1,8-naphthyridin-2-yl)ethoxy)-1H-pyrazol-3-yl)butanoic Acid], the IC50 worked out at 3.9 nM in assay [1], 17 nM in assay [2], 3.6 nM in assay [3] and 5.5 nM in assay [4].

Consider `Cn1nc(CC(CC(=O)O)c2cc(F)cc(C3(C(F)F)CC3)c2)cc1OCCc1ccc2c(n1)NCCC2` (stereo not shown) [Example 21, 3-(3-(1-(difluoromethyl)cyclopropyl)-5-fluorophenyl)-4-(1-methyl-5-(2-(5,6,7,8-tetrahydro-1,8-naphthyridin-2-yl)ethoxy)-1H-pyrazol-3-yl)butanoic Acid], for which the IC50 in assay [1] is 3.7 nM; in assay [2], 47 nM; in assay [3], 2.5 nM; in assay [4], 12 nM.

In the case of `Cn1nc(CC(CC(=O)O)c2cc(Cl)cc(C3(C(F)F)CC3)c2)cc1OCCc1ccc2c(n1)NCCC2` (stereo not shown) [Example 22, 3-(3-chloro-5-(1-(difluoromethyl)cyclopropyl)phenyl)-4-(1-methyl-5-(2-(5,6,7,8-tetrahydro-1,8-naphthyridin-2-yl)ethoxy)-1H-pyrazol-3-yl)butanoic Acid], the IC50 came out at 2.2 nM in assay [1], 26 nM in assay [2], 3.3 nM in assay [3] and 8.8 nM in assay [4].

Regarding `Cn1nc(CC(CC(=O)O)c2cc(C(F)(F)F)cc(C3(C(F)F)CC3)c2)cc1OCCc1ccc2c(n1)NCCC2` (stereo not shown) [Example 23, 3-(3-(1-(difluoromethyl)cyclopropyl)-5-(trifluoromethyl)phenyl)-4-(1-methyl-5-(2-(5,6,7,8-tetrahydro-1,8-naphthyridin-2-yl)ethoxy)-1H-pyrazol-3-yl)butanoic Acid], the IC50 was 3.8 nM in assay [1], 38 nM in assay [2], 7.5 nM in assay [3] and 8.8 nM in assay [4].
